In patent publication US20100029544A1, “Composition” (priority 2006, published 2010):
In brackets after ≈: the same amount, converted by molar mass. Each block holds one compound with its values, some of them ahead of it.

Columns and labels:
Caco-2 cells = assay: Intracellular localisation study (PK4 fluorescence microscopy); format: cell-based, human; details: PK4 20 μM alone, 37° C.
Excerpt: The intracellular polymer uptake was studied using an experimental anticancer drug named PK4 (bis-naphthalimidopropyl spermine). […] Due to the inherent fluorescence of PK4, the uptake of PK4 into cells can be visualised using Fluorescence Microscopy. Caco-2 cells (human colorectal cancer cells) were maintained in Dulbecco's Modified Eagle's Medium (DMEM) supplemented with 10% foetal calf serum (FCS), 1% non-essential amino acids and 1% L-glutamine and 1% penicillin/streptomycin at 10% CO2, 95% humidity and 37° C. […] The controls were 1) polymer only solutions (0.1 μml^−1), 2) PK4 only solutions (20 μM) and 3) medium. At specific time intervals the cells were photographed using a Leica DMRB fluorescence microscopy (Leica Microsystems, UK). The experiment above was repeated with the cells incubated at 4° C. instead of 37° C.

[1] = Loading of griseofulvin into QCPAA aggregates (solubilisation); format: physicochemical; details: thermodynamic from solid; excess drug sonicated in distilled water, filtered; read-out: intrinsic (aqueous) solubility of griseofulvin
Experimental: Drug loading was then achieved by probe sonication of the drugs in the presence of polymer aggregates in distilled water. Polymer, drug solutions with varying polymer: drug weight ratios were prepared. […] The aqueous solubility of griseofulvin was determined by sonicating excess drugs in distilled water. The solution was then filtered and analysed as described earlier. A griseofulvin calibration curve was prepared using various standard solutions (1-30 μgml^−1, R^2=0.993).

[2] = Loading of propofol into QCPAA or CePAA (solubilisation)
Experimental: Drug loading was carried out as described above. To determine the concentration of encapsulated drug, the solutions were filtered (0.45 μm) and the filtrates were dissolved in methanol and subsequently analysed using an ultraviolet-visible spectrophotometer at the wavelength of 272 nm. A propofol calibration graph was prepared using various standard solutions (0.012-0.16 mgml^−1, R^2=0.998). The filtered formulations were sized using photon correlation spectroscopy and imaged by scanning electron microscopy (SEM).

SMILES: O=C1c2cccc3cccc(c23)C(=O)N1CCCNCCCNCCCCNCCCNCCCN1C(=O)c2cccc3cccc(c23)C1=O [PK4, bis-naphthalimidopropyl spermine]
time until fluorescence was detected in cells (Caco-2 cells): 4.5 h

solubility [1]: 48.3 ± 1 µg/mL (≈ 137 µM)
SMILES: COC1=CC(=O)C[C@@H](C)[C@]12Oc1c(Cl)c(OC)cc(OC)c1C2=O [griseofulvin]

SMILES: CC(C)c1cccc(C(C)C)c1O [propofol]
solubility [2]: 112 µg/mL (≈ 628 µM)
